We go through 1 substance from US20220195384A1, “COMPOSITION FOR PROMOTING PRODUCTION OF STEM CELL-DERIVED EXOSOMES AND INCREASING STEMNESS” (BREXOGEN INC., priority 2019, published 2022).

Common to all, as to format: cell-based
Assay [1] relates to primary umbilical cord-derived mesenchymal stem cells. The experiment in a line: Stem cell proliferation (CCK, absorbance 450 nm) after pretreatment. To be noted: 10 ng/mL interferon-γ pretreatment one week; 24 h culture, CCK 4 h. Here is the method:
(§1) In a culture medium [high glucose DMEM (Gibco, Cat no. 11995-065); 10% fetal bovine serum (HyClone), 1% MEM non-essential amino acids solution (100×) (Gibco, Cat no. 11140-050)] containing 20 nM of exendin-4, primary umbilical cord-derived mesenchymal stem cells (ATCC No. PCS-500-010; Lot No. 63822428) were cultured for one week.
(§2) In a culture medium [high glucose DMEM (Gibco, Cat no. 11995-065); 10% fetal bovine serum (HyClone), 1% MEM non-essential amino acids solution (100×) (Gibco, Cat no. 11140-050)] containing 10 nM of PMA, primary umbilical cord-derived mesenchymal stem cells (ATCC No. PCS-500-010; Lot No. 63822428) were cultured for one week.
(§3) In a culture medium [high glucose DMEM (Gibco, Cat no. 11995-065); 10% fetal bovine serum (HyClone), 1% MEM non-essential amino acids solution (100×) (Gibco, Cat no. 11140-050)] containing 10 ng/mL interferon-γ, primary umbilical cord-derived mesenchymal stem cells (ATCC No. PCS-500-010; Lot No. 63822428) were cultured for one week.
(§4) In a culture medium [high glucose DMEM (Gibco, Cat no. 11995-065); 10% fetal bovine serum (HyClone), 1% MEM non-essential amino acids solution (100×) (Gibco, Cat no. 11140-050)] containing 10 μM of tetrandrine, primary umbilical cord-derived mesenchymal stem cells (ATCC No. PCS-500-010; Lot No. 63822428) were cultured for one week.
In a culture medium [high glucose DMEM (Gibco, Cat no. 11995-065); 10% fetal bovine serum (HyClone), 1% MEM non-essential amino acids solution (100×) (Gibco, Cat no. 11140-050)] containing 10 μg/mL hyaluronic acid, primary umbilical cord-derived mesenchymal stem cells (ATCC No. PCS-500-010; Lot No. 63822428) were cultured for one week.
In a culture medium [high glucose DMEM (Gibco, Cat no. 11995-065); 10% fetal bovine serum (HyClone), 1% MEM non-essential amino acids solution (100×) (Gibco, Cat no. 11140-050)] containing 30 nM of substance P, primary umbilical cord-derived mesenchymal stem cells (ATCC No. PCS-500-010; Lot No. 63822428) were cultured for one week.
In a culture medium [high glucose DMEM (Gibco, Cat no. 11995-065); 10% fetal bovine serum (HyClone), 1% MEM non-essential amino acids solution (100×) (Gibco, Cat no. 11140-050)] containing 10 nM of resveratrol, primary umbilical cord-derived mesenchymal stem cells (ATCC No. PCS-500-010; Lot No. 63822428) were cultured for one week.
In a culture medium [high glucose DMEM (Gibco, Cat no. 11995-065); 10% fetal bovine serum (HyClone), 1% MEM non-essential amino acids solution (100×) (Gibco, Cat no. 11140-050)] containing 10 μM of lanifibranor, primary umbilical cord-derived mesenchymal stem cells (ATCC No. PCS-500-010; Lot No. 63822428) were cultured for one week.
(§5) Mesenchymal stem cells and the exendin-4-pretreated mesenchymal stem cells of the Example were each seeded at a density of 3,000 cells/well into 96-well plates containing 100 μL of a culture medium [high glucose DMEM (Gibco, Cat no. 11995-065), 10% fetal bovine serum (HyClone), 1% MEM non-essential amino acids solution (100×) (Gibco, Cat no. 11140-050)] per well and cultured for 24 hours in a CO2 incubator. Then, CCK solution (10 μL/well) was added, and incubation was continued for 4 hours in the CO2 incubator, followed by reading absorbance at a wavelength of 450 nm (420-480 nm) to determine proliferation.
as §5, with “PMA-pretreated” for “exendin-4-pretreated”, “proliferation. […]” for “proliferation.”

Assay [2] shares this test system. Nature of the assay: Number of exosomes by nanoparticle tracking assay (NanoSight NS300). As to conditions: 10 ng/mL interferon-γ pretreatment one week. Here is the method: as §1
(§6) After completion of culturing, the mesenchymal stem cells pretreated with exendin-4 were washed and additionally cultured for 72 hours in a culture medium supplemented with 10% fetal bovine serum (FBS) free of exosomes. The reason of employing exosome-free FBS was to prevent FBS-derived exosomes other than those secreted from the cells from being incorporated because generally used FBS contained a large amount of exosomes derived from bovine serum.
(§7) After 72 hours of culturing, the culture medium in which the pretreated mesenchymal stem cells were cultured was taken and centrifuged at 300×g for 10 min to remove residual cells and cell debris. The supernatant was filtered through a 0.22 μm filter, followed by centrifugation at 10,000×g and 4° C. for 70 min in a high-speed centrifuge. The supernatant thus obtained was subjected again to ultracentrifugation at 100,000×g and 4° C. for 90 min. The exosomes obtained as a pellet were diluted in PBS (phosphate buffered saline) before use in the following experiments.
as §2
(§8) After completion of culturing, the mesenchymal stem cells pretreated with PMA were washed and additionally cultured for 72 hours in a culture medium supplemented with 10% fetal bovine serum (FBS) free of exosomes. The reason of employing exosome-free FBS was to prevent FBS-derived exosomes other than those secreted from the cells from being incorporated because generally used FBS contained a large amount of exosomes derived from bovine serum.
as §3
(§9) After completion of culturing, the mesenchymal stem cells pretreated with interferon-γ were washed and additionally cultured for 72 hours in a culture medium supplemented with 10% fetal bovine serum (FBS) free of exosomes. The reason of employing exosome-free FBS was to prevent FBS-derived exosomes other than those secreted from the cells from being incorporated because generally used FBS contained a large amount of exosomes derived from bovine serum.
as §4
(§10) After completion of culturing, the mesenchymal stem cells pretreated with tetrandrine were washed and additionally cultured for 72 hours in a culture medium supplemented with 10% fetal bovine serum (FBS) free of exosomes. The reason of employing exosome-free FBS was to prevent FBS-derived exosomes other than those secreted from the cells from being incorporated because generally used FBS contained a large amount of exosomes derived from bovine serum. […]

Assay [3] shares this test system. The experiment in a line: Content of exosomal RNA (NanoDrop). To be noted: 10 ng/mL interferon-γ pretreatment one week. Here is the method: as §1, §6, §7, §2, §8, §3, §9, §4, §10
Assay [4] shares this test system. Nature of the assay: Content of exosomal protein (Bradford analysis, 595 nm). As to conditions: 10 ng/mL interferon-γ pretreatment one week. Here is the method:
as §1, §6, §7, §2, §8, §3, §9, §4, §10

Consider “interferon-γ [IFNγ MSC-Exo = exosomes of IFNγ-treated mesenchymal stem cells]”, for which, in assay [1], the “increase in proliferation relative to non-treated mesenchymal stem cells” value is “about 242%” and the “proliferation ratio relative to non-treated mesenchymal stem cells (1)” value is given as 2.42. Further, the “fold more exosomes than non-treated mesenchymal stem cells” value in assay [2] is given as “about 6.7 fold”. The “No. of exosome particles, yield per 10^6 cells” value in assay [2] (then 72 h exosome-free FBS medium, non-treated 2.3) is reported as 15.4 10^9. For the same substance, the “fold greater exosomal RNA than non-treated mesenchymal stem cells” value in assay [3] is given as “about 5.0 fold”. The “Exosomal RNA, yield per 10^6 cells” value in assay [3] (then 72 h exosome-free FBS medium, non-treated 31.0) is on record as 155.0 ng. Besides, the “fold greater exosomal proteins than non-treated mesenchymal stem cells” value in assay [4] was “about 6.2 fold”. Further, the “Exosomal protein, yield per 10^6 cells” value in assay [4] (then 72 h exosome-free FBS medium, non-treated 2.0) turned out to be 12.4 ug.
